Here are results for four compounds from patent US4066510A, “Assay for mutagenesis in diploid human lymphoblasts” (Massachusetts Institute of Technology, priority 1976, dated 1978).

Like-named read-outs stand apart in the source and are kept apart here.

Data set [1] relates to Mutant Type (HGPRT-) clones (6TG^R). Put plainly: cells. The following applies: Homo sapiens.
Experimental: Cell survival was measured by a soft-agar plating procedure that was originally devised for mouse myeloma cells and latter extended to human lymphoblasts. […] For plating efficiencies, confluent feeder layers were used of a fibroblast strain derived from a patient afflicted with the Lesch-Nyhan syndrome. […] The feeder layer was overlayed with a separation layer formed from 2.5 ml of RPMI 1640 medium containing 0.25% agarose (M.C.I. Biomedical), which was allowed to gel at room temperature (10 min). The cells were suspended in 2.5 ml of 0.25% agarose-RPMI 1640 layered over the separator layer; this layer was then allowed to gel before the plates were incubated at 37° in humidified air containing 5% CO2. On the following day, 1.0 ml of RPMI 1640 medium was placed on each plate, and another 1.0 ml was added 6 days later. Although microscopic colonies could be counted on day 7, 14 days were allowed in order to permit an increase in colony size to about 0.4 mm because this permitted the use of an automatic colony counter (Artek Systems). Cell counts in suspension were accomplished by counting samples on an electronic particle counter (Coulter Electronics).
HGPRT activity and plating efficiencies as a function of 6TG concentration for clones sensitive (6TG^S) or resistant (6TG^R) to 10 μg/ml of 6TG were determined.
Plating efficiencies were determined following the procedure of Example 1.
A short description of another data set: in vitro. The following applies: human, mit-2 lymphoblasts.
Data set [2] deals with human lymphoblast line (MIT-2).
Data set [3] is described as follows: Stability of MNU solution (electronic absorption spectra). The format is physicochemical. The following applies: PBS, pH 7.2, kept cold. As to the method:
Crystalline form methylnitrosourea (MNU) was dessicated and preweighed into aliquots. The quantitative electronic absorption spectra of one of these preweighed aliquots dissolved in phosphate buffered saline (PBS), pH7.2, was determined and found to remain stable for more than 60 minutes when kept cold. Fresh solutions were prepared 10 minutes prior to dosing by dissolving preweighed aliquots in PBS and filter-sterilizing the solutions. They were then used immediately for dosing cultures and simultaneously characterized by electronic absorbance spectra.

The test system of the next data set is 6TG^S and 6TG^R clones. Put plainly: Dose-dependent sensitivity to MNU of 6TG^R clones compared with wild-type (6TG^S).
The subject of the next data set is HGPRT. To be noted: linear with time over 60 min, 5 × 10^6 cells/ml in the sonicate.

As to `Nc1nc2nc[nH]c2c(=S)[nH]1` [6TG, 6-thioguanine], the viability at 5 µg/mL in data set [1] (P1(0.5), read-out: RELATIVE SURVIVING FRACTION, clone P10, 5 μg/ml 6TG) is 81%; in data set [1] (read-out: RELATIVE SURVIVING FRACTION, clone B2, 5 μg/ml 6TG), 94%; in data set [1] (read-out: RELATIVE SURVIVING FRACTION, clone B4, 5 μg/ml 6TG), 160%; in data set [1] (read-out: RELATIVE SURVIVING FRACTION, clone B6, 5 μg/ml 6TG) it was 110%; in data set [1] (read-out: RELATIVE SURVIVING FRACTION, clone B7, 5 μg/ml 6TG) it was 120%; in data set [1] (read-out: RELATIVE SURVIVING FRACTION, clone B8, 5 μg/ml 6TG) it was 100%. In addition, the viability at 5 µg/mL is 110% in data set [1] (read-out: RELATIVE SURVIVING FRACTION, clone B9, 5 μg/ml 6TG); 86% in data set [1] (read-out: RELATIVE SURVIVING FRACTION, clone B13, 5 μg/ml 6TG); 71% in data set [1] (read-out: RELATIVE SURVIVING FRACTION, clone B15, 5 μg/ml 6TG); 110% in data set [1] (read-out: RELATIVE SURVIVING FRACTION, clone B17, 5 μg/ml 6TG); 90% in data set [1] (read-out: RELATIVE SURVIVING FRACTION, clone B20, 5 μg/ml 6TG); 112% in data set [1] (read-out: RELATIVE SURVIVING FRACTION, clone P1, 5 μg/ml 6TG). Also, the viability at 5 µg/mL in data set [1] (read-out: RELATIVE SURVIVING FRACTION, clone P2, 5 μg/ml 6TG) stood at 173%; in data set [1] (read-out: RELATIVE SURVIVING FRACTION, clone P6, 5 μg/ml 6TG), 103%; in data set [1] (read-out: RELATIVE SURVIVING FRACTION, clone P7, 5 μg/ml 6TG) it was 80%; in data set [1] (read-out: RELATIVE SURVIVING FRACTION, clone P9, 5 μg/ml 6TG), 86%; in data set [1] (read-out: RELATIVE SURVIVING FRACTION, clone P11, 5 μg/ml 6TG), 100%; in data set [1] (read-out: RELATIVE SURVIVING FRACTION, clone P15, 5 μg/ml 6TG) it was 87%. Besides, the viability at 5 µg/mL in data set [1] (read-out: RELATIVE SURVIVING FRACTION, clone P18, 5 μg/ml 6TG) came to 55%. The viability at 10 µg/mL in data set [1] (read-out: RELATIVE SURVIVING FRACTION, clone B2, 10 μg/ml 6TG) was determined as 100%; in data set [1] (read-out: RELATIVE SURVIVING FRACTION, clone B4, 10 μg/ml 6TG) it was 150%; in data set [1] (read-out: RELATIVE SURVIVING FRACTION, clone B6, 10 μg/ml 6TG) it was 82%; in data set [1] (read-out: RELATIVE SURVIVING FRACTION, clone B7, 10 μg/ml 6TG), 66%; in data set [1] (read-out: RELATIVE SURVIVING FRACTION, clone B8, 10 μg/ml 6TG) it was 93%; in data set [1] (read-out: RELATIVE SURVIVING FRACTION, clone B9, 10 μg/ml 6TG), 120%. In addition, the viability at 10 µg/mL amounted to 100% in data set [1] (read-out: RELATIVE SURVIVING FRACTION, clone B13, 10 μg/ml 6TG); 87% in data set [1] (read-out: RELATIVE SURVIVING FRACTION, clone B15, 10 μg/ml 6TG); 140% in data set [1] (read-out: RELATIVE SURVIVING FRACTION, clone B17, 10 μg/ml 6TG); 83% in data set [1] (read-out: RELATIVE SURVIVING FRACTION, clone B20, 10 μg/ml 6TG); 71% in data set [1] (read-out: RELATIVE SURVIVING FRACTION, clone D3, 10 μg/ml 6TG); 75% in data set [1] (read-out: RELATIVE SURVIVING FRACTION, clone P1, 10 μg/ml 6TG). In addition, the viability at 10 µg/mL in data set [1] (read-out: RELATIVE SURVIVING FRACTION, clone P2, 10 μg/ml 6TG) turned out to be 121%; in data set [1] (read-out: RELATIVE SURVIVING FRACTION, clone P6, 10 μg/ml 6TG), 97%; in data set [1] (read-out: RELATIVE SURVIVING FRACTION, clone P7, 10 μg/ml 6TG), 60%; in data set [1] (read-out: RELATIVE SURVIVING FRACTION, clone P9, 10 μg/ml 6TG), 45%; in data set [1] (read-out: RELATIVE SURVIVING FRACTION, clone P10, 10 μg/ml 6TG) it was 41%; in data set [1] (read-out: RELATIVE SURVIVING FRACTION, clone P11, 10 μg/ml 6TG) it was 55%. Besides, the viability at 10 µg/mL turned out to be 58% in data set [1] (read-out: RELATIVE SURVIVING FRACTION, clone P15, 10 μg/ml 6TG) and 62% in data set [1] (read-out: RELATIVE SURVIVING FRACTION, clone P18, 10 μg/ml 6TG). Moreover, the viability at 20 µg/mL in data set [1] (read-out: RELATIVE SURVIVING FRACTION, clone B2, 20 μg/ml 6TG) came out at 71%; in data set [1] (read-out: RELATIVE SURVIVING FRACTION, clone B4, 20 μg/ml 6TG), 110%; in data set [1] (read-out: RELATIVE SURVIVING FRACTION, clone B6, 20 μg/ml 6TG), 76%; in data set [1] (read-out: RELATIVE SURVIVING FRACTION, clone B7, 20 μg/ml 6TG), 57%; in data set [1] (read-out: RELATIVE SURVIVING FRACTION, clone B8, 20 μg/ml 6TG), 80%; in data set [1] (read-out: RELATIVE SURVIVING FRACTION, clone B9, 20 μg/ml 6TG), 68%. For the same compound, the viability at 20 µg/mL in data set [1] (read-out: RELATIVE SURVIVING FRACTION, clone B13, 20 μg/ml 6TG) is 45%; in data set [1] (read-out: RELATIVE SURVIVING FRACTION, clone B15, 20 μg/ml 6TG), 37%; in data set [1] (read-out: RELATIVE SURVIVING FRACTION, clone B17, 20 μg/ml 6TG), 160%; in data set [1] (read-out: RELATIVE SURVIVING FRACTION, clone B20, 20 μg/ml 6TG) it was 51%; in data set [1] (read-out: RELATIVE SURVIVING FRACTION, clone D3, 20 μg/ml 6TG) it was 73%; in data set [1] (read-out: RELATIVE SURVIVING FRACTION, clone P1, 20 μg/ml 6TG) it was 86%. Besides, the viability at 20 µg/mL in data set [1] (read-out: RELATIVE SURVIVING FRACTION, clone P2, 20 μg/ml 6TG) amounted to 94%; in data set [1] (read-out: RELATIVE SURVIVING FRACTION, clone P6, 20 μg/ml 6TG) it was 67%; in data set [1] (read-out: RELATIVE SURVIVING FRACTION, clone P7, 20 μg/ml 6TG), 54%; in data set [1] (read-out: RELATIVE SURVIVING FRACTION, clone P9, 20 μg/ml 6TG) it was 22%; in data set [1] (read-out: RELATIVE SURVIVING FRACTION, clone P10, 20 μg/ml 6TG), 30%; in data set [1] (read-out: RELATIVE SURVIVING FRACTION, clone P11, 20 μg/ml 6TG), 24%. For the same compound, the viability at 20 µg/mL in data set [1] (read-out: RELATIVE SURVIVING FRACTION, clone P15, 20 μg/ml 6TG) was found to be 27%; in data set [1] (read-out: RELATIVE SURVIVING FRACTION, clone P18, 20 μg/ml 6TG), 45%.

On to `CCOS(C)(=O)=O` [EMS, ethyl methane sulphonate], for which the viability at 24 h in “in vitro” was found to be 0.12%. Also, in data set [2], the “EST. INITIAL GROWTH DELAY” value is listed as 0.

Take `CN(N=O)C(N)=O` [MNU, methylnitrosourea]: in the data set “in vitro”, the viability at 24 h stood at 0.1%. Further, the “stability of electronic absorption spectrum in solution” value in data set [3] is on record as “more than 60 minutes”. The “survival fraction of one 6TG^R clone” value in the data set on 6TG^S and 6TG^R clones (1 6TG^R clone, relatively high concentration of MNU) was “high survival fraction”. Further, the “MNU toxicity, 6TG^S versus 6TG^R clones” value in the data set on 6TG^S and 6TG^R clones (4 6TG^S and 4 6TG^R clones) is reported as “the average behavior of the two groups was virtually identical”. In data set [2], the “EST. INITIAL GROWTH DELAY” value worked out at 0; the “absolute plating efficiency in the absence of 6TG, stable maximum” value is reported as “about 0.28 clones observed/particle plated”; the “population increase before the culture's apparent cessation of growth” value is recorded as “about 2.25 times”.

For `O=c1[nH]cnc2nc[nH]c12` [hypoxanthine], in the data set with HGPRT, the phosphoribosylation velocity was 6.4 ± 0.4 mmoles of hypoxanthine/min.
